Square brackets hold non-standard residues; d marks the D form. Ends that are not written are not given here. pY = N[C@@H](Cc1ccc(OP(=O)(O)O)cc1)C(=O)O
T1: Shc (PTB domain, Shc^PTB) (Homo sapiens, UniProt P29353)
T1 sequence (P29353 156-339 limits assumed): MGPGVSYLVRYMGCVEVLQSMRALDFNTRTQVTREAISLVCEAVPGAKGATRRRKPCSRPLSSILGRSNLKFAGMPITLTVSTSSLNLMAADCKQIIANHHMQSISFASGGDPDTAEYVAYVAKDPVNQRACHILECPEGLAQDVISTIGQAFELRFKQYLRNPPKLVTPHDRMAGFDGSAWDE

T2: Shc (PTB domain, Shc^PTB R175Q) (Homo sapiens, UniProt P29353, R285Q)
T2 sequence (P29353 156-339 R285Q limits assumed): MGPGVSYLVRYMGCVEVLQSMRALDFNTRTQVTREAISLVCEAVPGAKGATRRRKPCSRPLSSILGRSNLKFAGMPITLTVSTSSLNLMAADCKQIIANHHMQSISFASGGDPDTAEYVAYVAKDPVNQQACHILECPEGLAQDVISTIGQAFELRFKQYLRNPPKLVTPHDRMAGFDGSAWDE

T3: Shc phosphotyrosine binding (PTB) domain (UniProt P29353-2 17-207, Atto488 label, 1:1 protein:dye (in the MST only))
T3 sequence: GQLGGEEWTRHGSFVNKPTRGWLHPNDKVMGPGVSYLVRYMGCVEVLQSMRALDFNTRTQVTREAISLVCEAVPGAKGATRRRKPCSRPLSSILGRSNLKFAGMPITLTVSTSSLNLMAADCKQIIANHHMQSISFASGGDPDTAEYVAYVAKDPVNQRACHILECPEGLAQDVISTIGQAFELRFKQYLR


What was measured:
[1] = molecular target: T1, Shc (PTB domain, Shc^PTB); test: ITC; assay type: binding
[2] = molecular target: T2, Shc (PTB domain, Shc^PTB R175Q); test: MST with Atto488-labelled Shc^PTB R175Q; assay type: binding
[3] = molecular target: T3, Shc phosphotyrosine binding (PTB) domain; test: MST

Kd [1]	Kd [2]	Kd [3]	Molecule
38.2 ± 7.2 µM	590 ± 54 µM		COc1ccc2c(c1)c(CC(=O)O)c(C)n2C(=O)c1ccc(Cl)cc1 [indomethacin]
		0.261 µM	SPAFDNLY[pY]WDQ [ErbB2 pY1122 peptide]

Source: PMC6584941 (Cancer Letters, 2019)
